The target in experiment [1] is Carbonic anhydrase 1 (Homo sapiens, UniProt P00915). Put plainly: Inhibition of human CA I assessed as inhibition constant by stopped-flow CO2 hydrase assay method.
Experiment [2] deals with Carbonic anhydrase 9 (Homo sapiens, UniProt Q16790). Put plainly: Inhibition of human CA IX assessed as inhibition constant by stopped-flow CO2 hydrase assay method.
The target of experiment [3] is Carbonic anhydrase 2 (Homo sapiens, UniProt P00918). Briefly: Inhibition of human CA II assessed as inhibition constant by stopped-flow CO2 hydrase assay method.
Experiment [4] concerns the target Carbonic anhydrase 12 (Homo sapiens, UniProt O43570). Briefly: Inhibition of human CA XII assessed as inhibition constant by stopped-flow CO2 hydrase assay method.

Carbonic anhydrase 12, sequence (O43570 whole entry): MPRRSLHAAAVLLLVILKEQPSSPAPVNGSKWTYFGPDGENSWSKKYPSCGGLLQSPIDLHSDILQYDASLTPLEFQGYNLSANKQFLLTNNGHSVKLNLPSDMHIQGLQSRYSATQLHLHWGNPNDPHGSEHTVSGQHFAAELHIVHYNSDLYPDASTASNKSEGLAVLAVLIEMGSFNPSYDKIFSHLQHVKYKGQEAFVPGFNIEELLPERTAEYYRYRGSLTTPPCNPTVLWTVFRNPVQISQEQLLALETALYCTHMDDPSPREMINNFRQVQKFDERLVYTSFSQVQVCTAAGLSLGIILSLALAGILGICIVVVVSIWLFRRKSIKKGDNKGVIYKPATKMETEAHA
Carbonic anhydrase 1, sequence (P00915 whole entry): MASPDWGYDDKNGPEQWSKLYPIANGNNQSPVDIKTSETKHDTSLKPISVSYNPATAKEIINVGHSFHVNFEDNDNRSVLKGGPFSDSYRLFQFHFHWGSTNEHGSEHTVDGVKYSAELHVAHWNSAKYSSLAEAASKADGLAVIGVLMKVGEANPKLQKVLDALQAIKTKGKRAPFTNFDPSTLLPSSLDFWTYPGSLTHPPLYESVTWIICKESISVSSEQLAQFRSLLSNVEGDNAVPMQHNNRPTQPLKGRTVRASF

In the case of `CC1=NN(c2ccc(C#N)cc2)C(=O)/C1=N/Nc1cccc(S(N)(=O)=O)c1`, the Ki in experiment [1] is 0.495 µM; in experiment [2], 0.0607 µM; in experiment [3], 0.0005 µM; in experiment [4] it was 0.0039 µM.

On to `CC1=NN(c2ccccc2Cl)C(=O)/C1=N/Nc1cccc(S(N)(=O)=O)c1`, for which the inhibition constant Ki in experiment [1] turned out to be 9.08 µM; in experiment [2], 0.0707 µM; in experiment [3] it was 0.29 µM; in experiment [4], 0.123 µM.

In the case of `CC1=NNC(=O)/C1=N/Nc1cccc(S(N)(=O)=O)c1`, the Ki in experiment [1] was 0.217 µM; in experiment [2], 0.0229 µM; in experiment [3], 0.139 µM; in experiment [4] it was 0.0872 µM.

Turning to `CC1=NN(c2ccc(Cl)cc2)C(=O)/C1=N/Nc1ccc(S(N)(=O)=O)cc1`, the inhibitory constant (Ki) in experiment [1] turned out to be 8.64 µM; in experiment [2], 0.0011 µM; in experiment [3], 0.0211 µM; in experiment [4], 0.0246 µM.

In the case of `CC1=NN(c2ccc(C)cc2)C(=O)/C1=N/Nc1cccc(S(N)(=O)=O)c1`, the inhibition constant (Ki) in experiment [1] amounted to 0.376 µM; in experiment [2], 0.0449 µM; in experiment [3], 0.186 µM; in experiment [4], 0.0406 µM.

With `CC1=NN(c2ccc(Cl)cc2Cl)C(=O)/C1=N/Nc1cccc(S(N)(=O)=O)c1`, the inhibitory constant (Ki) worked out at 53.2 µM in experiment [1], 0.158 µM in experiment [2], 0.473 µM in experiment [3] and 0.273 µM in experiment [4].

With `CC1=NN(c2ccc(C)cc2)C(=O)/C1=N/Nc1ccc(S(N)(=O)=O)cc1`, the Ki in experiment [1] amounted to 0.337 µM; in experiment [2], 0.0251 µM; in experiment [3] it was 0.0061 µM; in experiment [4], 0.0661 µM.

On to `CC1=NN(c2ccccc2)C(=O)/C1=N/Nc1ccc(S(N)(=O)=O)cc1`, for which the Ki in experiment [1] was determined as 0.712 µM; in experiment [2] it was 0.0087 µM; in experiment [4] it was 0.0488 µM.

Regarding `CC1=NN(c2ccccc2)C(=O)/C1=N/Nc1cccc(S(N)(=O)=O)c1`, the inhibitory constant (Ki) in experiment [1] worked out at 8.31 µM; in experiment [2], 0.015 µM; in experiment [3], 0.0066 µM; in experiment [4], 0.0535 µM.

Consider `CC1=NN(c2ccc(C#N)cc2)C(=O)/C1=N/Nc1ccc(S(N)(=O)=O)cc1`, for which the inhibitory constant (Ki) in experiment [1] stood at 0.504 µM; in experiment [2] it was 0.0032 µM; in experiment [3] it was 0.059 µM; in experiment [4], 0.0092 µM.

Take `CC1=NN(c2ccc(Cl)cc2Cl)C(=O)/C1=N/Nc1ccc(S(N)(=O)=O)cc1`: the inhibition constant (Ki) in experiment [1] amounted to 5.27 µM; in experiment [2], 0.0085 µM; in experiment [3], 0.072 µM; in experiment [4], 0.0067 µM.

`CC1=NN(c2ccccc2Cl)C(=O)/C1=N/Nc1ccc(S(N)(=O)=O)cc1`: the Ki in experiment [1] was determined as 7.42 µM; in experiment [2], 0.0312 µM; in experiment [3] it was 0.0776 µM; in experiment [4] it was 0.0737 µM.

Consider `CC1=NNC(=O)/C1=N/Nc1ccc(S(N)(=O)=O)cc1`, for which the Ki came out at 0.0531 µM in experiment [1], 0.0362 µM in experiment [2], 0.0025 µM in experiment [3] and 0.161 µM in experiment [4].

Turning to `CC1=NN(c2ccc(Cl)cc2)C(=O)/C1=N/Nc1cccc(S(N)(=O)=O)c1`, the inhibition constant Ki in experiment [1] was 7.81 µM; in experiment [2] it was 0.0402 µM; in experiment [3], 0.327 µM; in experiment [4], 0.0906 µM.

As a reminder, the Ki is the equilibrium dissociation constant of an inhibitor or competing ligand from its target.

(Values after ChEMBL document CHEMBL5365480, “Potent and selective carbonic anhydrase inhibition activities of pyrazolones bearing benzenesulfonamides” (Bioorg Med Chem Lett, 2023).)
